Tests used:
Experiment in all cases: radioligand displacement
Muscarinic M3 = Muscarinic M3 (Homo sapiens, UniProt P20309); assay type: binding
Somatostatin sst1 = Somatostatin sst1 (Homo sapiens, UniProt P30872)
Endothelin ETA = Endothelin ETA (Homo sapiens, UniProt P25101); assay type: binding
Chemokine CCR5 = Chemokine CCR5 (Homo sapiens, UniProt P51681); assay type: binding
Adrenergic β1 = Adrenergic β1 (Homo sapiens, UniProt P08588); assay type: binding
Bradykinin B1 = Bradykinin B1 (Homo sapiens, UniProt P46663); assay type: binding; settings: vs [3H]des Arg10 Kallidin; bound from single concentration […]
Adenosine A1 = Adenosine A1 (Homo sapiens, UniProt P30542); assay type: binding
Muscarinic M1 = Muscarinic M1 (Homo sapiens, UniProt P11229); assay type: binding
Neuropeptide Y1 = Neuropeptide Y1 (Homo sapiens, UniProt P25929); assay type: binding
Serotonin 5-HT1A = Serotonin 5-HT1A (Homo sapiens, UniProt P08908); assay type: binding
Adrenergic α1D = Adrenergic α1D (Homo sapiens, UniProt P25100); assay type: binding
Neurotensin NT1 = Neurotensin NT1 (Homo sapiens, UniProt P30989); assay type: binding
Dopamine D2L = Dopamine D2L (Homo sapiens, UniProt P14416); assay type: binding
Serotonin 5-HT1_5A = Serotonin 5-HT1_5A (Homo sapiens, UniProt P47898); assay type: binding
Estrogen ERβ = Estrogen ERβ (Homo sapiens, UniProt Q92731)
Angiotensin AT1 = Angiotensin AT1 (Homo sapiens, UniProt P30556); assay type: binding
Leukotriene CysLT1 = Leukotriene CysLT1 (Homo sapiens, UniProt Q9Y271); assay type: binding
Cannabinoid CB2 = Cannabinoid CB2 (Homo sapiens, UniProt P34972); assay type: binding
Tachykinin NK1 = Tachykinin NK1 (Homo sapiens, UniProt P25103); assay type: binding
Dopamine D3 = Dopamine D3 (Homo sapiens, UniProt P35462); assay type: binding
Chemokine CCR1 = Chemokine CCR1 (Homo sapiens, UniProt P32246); assay type: binding
Opiate σ(OP1) = Opiate σ(OP1) (Homo sapiens, UniProt P41143); assay type: binding
Histamine H1 = Histamine H1 (Homo sapiens, UniProt P35367); assay type: binding

Measured: IC50

Chain of Somatostatin sst1 (P30872 whole entry): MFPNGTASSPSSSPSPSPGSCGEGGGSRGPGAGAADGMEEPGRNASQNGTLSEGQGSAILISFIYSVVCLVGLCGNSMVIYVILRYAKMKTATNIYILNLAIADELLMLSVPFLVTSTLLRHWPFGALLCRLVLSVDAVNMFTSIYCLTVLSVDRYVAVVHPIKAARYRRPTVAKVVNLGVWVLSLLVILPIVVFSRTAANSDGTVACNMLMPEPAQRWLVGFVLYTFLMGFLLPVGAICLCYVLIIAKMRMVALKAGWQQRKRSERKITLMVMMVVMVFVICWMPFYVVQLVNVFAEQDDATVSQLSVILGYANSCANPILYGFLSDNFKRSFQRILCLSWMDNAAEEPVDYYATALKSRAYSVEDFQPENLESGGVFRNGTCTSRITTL
Chain of Cannabinoid CB2 (P34972 whole entry): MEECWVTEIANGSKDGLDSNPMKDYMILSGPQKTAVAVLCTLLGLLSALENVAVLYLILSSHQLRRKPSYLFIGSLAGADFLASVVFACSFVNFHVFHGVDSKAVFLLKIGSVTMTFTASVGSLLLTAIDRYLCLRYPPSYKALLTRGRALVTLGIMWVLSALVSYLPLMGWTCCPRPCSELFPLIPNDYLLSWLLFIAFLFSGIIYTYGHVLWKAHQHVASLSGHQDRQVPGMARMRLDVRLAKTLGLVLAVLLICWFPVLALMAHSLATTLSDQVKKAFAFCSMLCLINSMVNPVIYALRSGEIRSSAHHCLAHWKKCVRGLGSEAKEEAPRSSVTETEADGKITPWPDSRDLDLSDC
Chain of Neurotensin NT1 (P30989 whole entry): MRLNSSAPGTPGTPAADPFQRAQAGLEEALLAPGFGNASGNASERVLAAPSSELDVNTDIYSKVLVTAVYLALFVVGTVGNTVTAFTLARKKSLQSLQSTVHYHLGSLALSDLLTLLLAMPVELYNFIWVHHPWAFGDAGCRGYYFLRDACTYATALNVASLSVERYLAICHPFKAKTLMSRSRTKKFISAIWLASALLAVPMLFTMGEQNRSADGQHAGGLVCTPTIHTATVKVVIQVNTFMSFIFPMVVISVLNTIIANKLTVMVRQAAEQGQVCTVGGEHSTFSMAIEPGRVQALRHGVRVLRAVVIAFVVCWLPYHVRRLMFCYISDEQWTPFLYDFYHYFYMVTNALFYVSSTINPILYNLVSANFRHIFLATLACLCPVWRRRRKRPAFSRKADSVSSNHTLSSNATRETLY
Chain of Chemokine CCR1 (P32246 whole entry): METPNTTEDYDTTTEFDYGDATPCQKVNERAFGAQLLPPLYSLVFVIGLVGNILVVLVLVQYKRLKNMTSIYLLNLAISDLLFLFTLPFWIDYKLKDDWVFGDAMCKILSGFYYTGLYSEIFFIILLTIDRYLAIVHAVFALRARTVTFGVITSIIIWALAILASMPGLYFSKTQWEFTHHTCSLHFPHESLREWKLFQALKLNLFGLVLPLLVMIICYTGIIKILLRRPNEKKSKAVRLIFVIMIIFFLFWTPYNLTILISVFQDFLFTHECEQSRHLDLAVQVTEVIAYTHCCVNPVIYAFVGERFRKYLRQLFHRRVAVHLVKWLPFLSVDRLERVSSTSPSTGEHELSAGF
Chain of Estrogen ERβ (Q92731 whole entry): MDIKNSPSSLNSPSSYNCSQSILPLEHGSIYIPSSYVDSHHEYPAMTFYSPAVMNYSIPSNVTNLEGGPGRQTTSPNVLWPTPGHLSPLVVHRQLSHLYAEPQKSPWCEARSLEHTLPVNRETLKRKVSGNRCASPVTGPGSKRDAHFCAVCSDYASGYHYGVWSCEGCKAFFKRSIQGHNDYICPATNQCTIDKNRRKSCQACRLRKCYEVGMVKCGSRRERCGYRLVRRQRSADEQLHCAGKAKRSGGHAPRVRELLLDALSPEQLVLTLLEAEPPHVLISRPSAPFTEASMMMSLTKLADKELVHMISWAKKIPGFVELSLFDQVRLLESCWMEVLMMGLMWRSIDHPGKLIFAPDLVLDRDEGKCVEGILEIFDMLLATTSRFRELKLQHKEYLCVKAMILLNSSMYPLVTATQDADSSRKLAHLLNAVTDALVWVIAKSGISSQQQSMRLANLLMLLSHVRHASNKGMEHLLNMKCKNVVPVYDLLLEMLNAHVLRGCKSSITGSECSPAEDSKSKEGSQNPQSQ
Chain of Serotonin 5-HT1A (P08908 whole entry): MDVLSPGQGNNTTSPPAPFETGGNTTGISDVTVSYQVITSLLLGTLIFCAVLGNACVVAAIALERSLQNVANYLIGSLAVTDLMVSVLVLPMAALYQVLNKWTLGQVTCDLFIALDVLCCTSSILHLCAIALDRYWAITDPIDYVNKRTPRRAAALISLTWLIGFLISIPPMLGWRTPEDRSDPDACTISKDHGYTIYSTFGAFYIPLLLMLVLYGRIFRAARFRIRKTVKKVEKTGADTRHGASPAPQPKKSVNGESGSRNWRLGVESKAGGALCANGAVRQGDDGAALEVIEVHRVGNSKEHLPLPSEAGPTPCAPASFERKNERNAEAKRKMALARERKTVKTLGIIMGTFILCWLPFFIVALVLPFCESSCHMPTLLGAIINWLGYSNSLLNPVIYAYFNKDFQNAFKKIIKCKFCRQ
Chain of Adrenergic β1 (P08588 whole entry): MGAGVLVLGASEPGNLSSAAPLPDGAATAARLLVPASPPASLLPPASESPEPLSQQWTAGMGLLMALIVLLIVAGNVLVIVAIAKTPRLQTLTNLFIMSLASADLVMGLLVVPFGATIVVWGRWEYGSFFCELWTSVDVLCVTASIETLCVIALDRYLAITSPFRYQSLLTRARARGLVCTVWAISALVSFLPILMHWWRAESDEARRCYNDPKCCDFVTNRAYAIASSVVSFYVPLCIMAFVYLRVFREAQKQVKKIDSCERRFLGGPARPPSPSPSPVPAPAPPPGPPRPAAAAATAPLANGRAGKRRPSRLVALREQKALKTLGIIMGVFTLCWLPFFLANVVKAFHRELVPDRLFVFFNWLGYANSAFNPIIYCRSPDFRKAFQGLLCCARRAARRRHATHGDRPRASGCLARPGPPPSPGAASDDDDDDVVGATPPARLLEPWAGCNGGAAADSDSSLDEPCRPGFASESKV
Chain of Histamine H1 (P35367 whole entry): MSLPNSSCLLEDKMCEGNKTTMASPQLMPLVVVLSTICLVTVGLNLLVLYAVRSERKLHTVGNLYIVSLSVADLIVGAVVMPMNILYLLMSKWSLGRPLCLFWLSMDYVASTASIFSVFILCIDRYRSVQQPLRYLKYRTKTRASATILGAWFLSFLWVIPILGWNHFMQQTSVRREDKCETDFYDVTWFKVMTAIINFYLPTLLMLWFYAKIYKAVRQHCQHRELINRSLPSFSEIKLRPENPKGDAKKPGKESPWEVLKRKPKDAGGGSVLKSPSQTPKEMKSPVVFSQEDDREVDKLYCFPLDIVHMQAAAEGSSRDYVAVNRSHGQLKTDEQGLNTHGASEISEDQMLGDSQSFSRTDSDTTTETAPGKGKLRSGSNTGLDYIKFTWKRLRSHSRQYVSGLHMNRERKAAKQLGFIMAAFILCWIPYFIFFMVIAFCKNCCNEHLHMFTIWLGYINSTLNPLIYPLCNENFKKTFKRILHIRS
Chain of Neuropeptide Y1 (P25929 whole entry): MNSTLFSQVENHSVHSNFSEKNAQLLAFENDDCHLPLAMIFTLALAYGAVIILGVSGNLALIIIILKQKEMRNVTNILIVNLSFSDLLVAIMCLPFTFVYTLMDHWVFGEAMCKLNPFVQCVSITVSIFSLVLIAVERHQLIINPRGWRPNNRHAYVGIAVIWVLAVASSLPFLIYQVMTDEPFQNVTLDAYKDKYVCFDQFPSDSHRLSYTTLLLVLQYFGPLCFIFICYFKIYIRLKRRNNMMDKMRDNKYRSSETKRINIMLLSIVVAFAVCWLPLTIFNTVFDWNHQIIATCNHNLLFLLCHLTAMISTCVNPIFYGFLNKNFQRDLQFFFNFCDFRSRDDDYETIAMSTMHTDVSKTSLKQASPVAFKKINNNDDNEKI
Chain of Adenosine A1 (P30542 whole entry): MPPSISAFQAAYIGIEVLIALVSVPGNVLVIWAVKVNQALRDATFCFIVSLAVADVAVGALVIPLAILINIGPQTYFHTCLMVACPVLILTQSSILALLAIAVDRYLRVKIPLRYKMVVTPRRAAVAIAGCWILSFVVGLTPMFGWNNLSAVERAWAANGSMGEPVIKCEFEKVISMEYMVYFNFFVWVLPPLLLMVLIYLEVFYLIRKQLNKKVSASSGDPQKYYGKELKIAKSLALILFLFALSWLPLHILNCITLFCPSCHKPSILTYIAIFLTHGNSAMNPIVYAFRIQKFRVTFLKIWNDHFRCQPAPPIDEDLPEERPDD
Chain of Bradykinin B1 (P46663 whole entry): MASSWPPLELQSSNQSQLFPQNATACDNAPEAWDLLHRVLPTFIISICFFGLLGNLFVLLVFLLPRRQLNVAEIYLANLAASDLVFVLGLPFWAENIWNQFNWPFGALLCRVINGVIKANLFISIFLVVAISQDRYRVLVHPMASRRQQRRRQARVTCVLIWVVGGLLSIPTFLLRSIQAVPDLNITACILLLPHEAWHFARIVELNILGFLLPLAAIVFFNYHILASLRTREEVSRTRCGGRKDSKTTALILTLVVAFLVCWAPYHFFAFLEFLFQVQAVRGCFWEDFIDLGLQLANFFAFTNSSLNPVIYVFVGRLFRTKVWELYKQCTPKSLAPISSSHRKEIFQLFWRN
Chain of Dopamine D3 (P35462 whole entry): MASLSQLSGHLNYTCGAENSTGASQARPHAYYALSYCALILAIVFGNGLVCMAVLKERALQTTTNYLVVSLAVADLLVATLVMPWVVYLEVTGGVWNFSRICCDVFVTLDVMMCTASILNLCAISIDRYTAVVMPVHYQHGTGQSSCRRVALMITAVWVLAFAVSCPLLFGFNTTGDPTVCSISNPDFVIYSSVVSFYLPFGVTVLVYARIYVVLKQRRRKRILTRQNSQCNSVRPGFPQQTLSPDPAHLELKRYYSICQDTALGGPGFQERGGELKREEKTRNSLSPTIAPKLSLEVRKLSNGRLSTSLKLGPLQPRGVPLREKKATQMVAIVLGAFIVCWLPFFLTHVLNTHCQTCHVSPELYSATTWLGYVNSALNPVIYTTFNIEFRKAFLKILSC

CC(=O)c1ccc2c(c1)C1C=CCC1C(c1cc3c(cc1Br)OCO3)N2 (centres unmarked) [G-1, 1-[4-(6-bromobenzo[1,3]dioxol-5-yl)-3a,4,5,9b-tetrahydro-3H-cyclopenta[c]quinolin-8-yl]-ethanone]
> 10 µM: all assays above
